Tested on: splenic CD8 T cells
Test: ELIspot for interferon γ of splenic CD8 T cells from immunized mice
Assay type: cell-based, BALB/c mice
Conditions: spleens seven days after second immunization; in vitro stimulation with immunizing 18-mer, 10 µM
Excerpt: BALB/c mice were immunized with 18-mer peptides containing Ccdc85c^MUT as well as Ccdc85c^WT as described in Methods. Spleens were harvested seven days after the second immunization and splenic CD8 T cells tested by ELIspot for interferon γ production in response to stimulation in vitro with the peptides used for immunization. […] Since the CD8 response detected in vitro was so modest, CD8 response as detected in vivo in the tumor microenvironment became our focus.
Supplementary Fig. 3. CD8 response to Ccdc85cMUT and Ccdc85cWT peptides. BALB/c mice were immunized twice at a weekly interval with 18-mer peptides containing Ccdc85cWT (left) or Ccdc85cMUT (right) as described in Methods. Spleens were harvested seven days after the second immunization and CD8 T cells stimulated in vitro with the peptides (10 µM concentration) used for immunization, as indicated. CD8 cells were analyzed for release of interferon g. Each dot represents a single mouse. The P values were calculated using two tailed t-test. Data are presented as mean values +/- SD. […]

DPSSTYIRPFETKVKLLD [18-mer peptide with the mutant amino acid near the center]
CD8 response (interferon γ ELIspot): very modest but statistically significant CD8 response

From publication PMC8571378, “Reversion analysis reveals the in vivo immunogenicity of a poorly MHC I-binding cancer neoepitope” (Nature Communications, 2021)
